# Test results taken from patent US20220119354A1, “DIAMINO-SUBSTITUTED PYRIDINES AND PYRIMIDINES AS HERBICIDES” (FMC Corporation, priority 2019, published 2022).
# Key:
# Type in all cases: in vivo
# rice (Oryza sativa) = assay: Test B flooded paddy test, rice; settings: Flood, 250 g ai/ha, applied to paddy water, 2-leaf stage, visual evaluation after 13 to 15 d
# Procedure, shortened: (§1)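 Application was made into paddy water of pots flooded 3 cm deep at treatment, with seedlings at the 2-leaf stage. That flood level was kept throughout, and plants stayed under glass 13 to 15 d before visual assessment on a 0–100 control scale.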
# [1] = test system: barnyardgrass (Echinochloa crus-galli); assay: Test A postemergence, barnyardgrass; settings: 0 to 100 scale, 0 no effect, 100 complete control
# Procedure, shortened: (§2)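 Pots of loam–sand mix; preemergence directed soil spray at sowing, postemergence spray at one- to two-leaf stage. Readout: visual injury vs untreated controls, ~10 d, 0–100 scale.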
# [2] = test system: foxtail, giant (Setaria faberii); assay: Test A preemergence, giant foxtail; settings: 0 to 100 scale, 0 is no effect, 100 is complete control
# Procedure, shortened: as §2
# [3] = test system: pigweed (Amaranthus retroflexus); assay: Test A postemergence, pigweed; settings: 0 to 100 scale, 0 no effect, 100 complete control
# Procedure, shortened: as §2
# kochia (Kochia scoparia) [4] = assay: Test A preemergence, kochia; settings: 0 to 100 scale, 0 is no effect, 100 is complete control
# Procedure, shortened: as §2
# [5] = test system: barnyardgrass (Echinochloa crus-galli); assay: Test A preemergence, barnyardgrass; settings: 0 to 100 scale, 0 is no effect, 100 is complete control
# Procedure, shortened: as §2
# corn (Zea mays) = assay: Test A postemergence, corn; settings: 0 to 100 scale, 0 no effect, 100 complete control
# Procedure, shortened: as §2
# [6] = test system: foxtail, giant (Setaria faberii); assay: Test A postemergence, giant foxtail; settings: 0 to 100 scale, 0 no effect, 100 complete control
# Procedure, shortened: as §2
# [7] = test system: ragweed (common ragweed, Ambrosia elatior); assay: Test A preemergence, ragweed; settings: 0 to 100 scale, 0 is no effect, 100 is complete control
# Procedure, shortened: as §2
# [8] = test system: ryegrass, Italian (Lolium multiflorum); assay: Test A postemergence, Italian ryegrass; settings: 0 to 100 scale, 0 no effect, 100 complete control
# Procedure, shortened: as §2
# [9] = test system: ducksalad (Heteranthera limosa); assay: Test B flooded paddy test, ducksalad; settings: Flood, 250 g ai/ha, applied to paddy water, 2-leaf stage, visual evaluation after 13 to 15 d
# Procedure, shortened: as §1
# kochia (Kochia scoparia) [10] = assay: Test A postemergence, kochia; settings: 0 to 100 scale, 0 no effect, 100 complete control
# Procedure, shortened: as §2
# [11] = test system: ryegrass, Italian (Lolium multiflorum); assay: Test A preemergence, Italian ryegrass; settings: 0 to 100 scale, 0 is no effect, 100 is complete control
# Procedure, shortened: as §2
# [12] = test system: barnyardgrass (Echinochloa crus-galli); assay: Test B flooded paddy test, barnyardgrass; settings: Flood, 250 g ai/ha, applied to paddy water, 2-leaf stage, visual evaluation after 13 to 15 d
# Procedure, shortened: as §1
# [13] = test system: blackgrass (Alopecurus myosuroides); assay: Test A postemergence, blackgrass; settings: 0 to 100 scale, 0 no effect, 100 complete control
# Procedure, shortened: as §2
# [14] = test system: ragweed (common ragweed, Ambrosia elatior); assay: Test A postemergence, ragweed; settings: 0 to 100 scale, 0 no effect, 100 complete control
# Procedure, shortened: as §2
# [15] = test system: pigweed (Amaranthus retroflexus); assay: Test A preemergence, pigweed; settings: 0 to 100 scale, 0 is no effect, 100 is complete control
# Procedure, shortened: as §2
# [16] = test system: galium (catchweed bedstraw, Galium aparine); assay: Test A postemergence, galium; settings: 0 to 100 scale, 0 no effect, 100 complete control
# Procedure, shortened: as §2
# [17] = test system: sedge, umbrella (small-flower umbrella sedge, Cyperus difformis); assay: Test B flooded paddy test, umbrella sedge; settings: Flood, 250 g ai/ha, applied to paddy water, 2-leaf stage, visual evaluation after 13 to 15 d
# Procedure, shortened: as §1
# [18] = test system: wheat (Triticum aestivum); assay: Test A postemergence, wheat; settings: 0 to 100 scale, 0 no effect, 100 complete control
# Procedure, shortened: as §2
SMILES,"Plant response rating, Rice (0 to 100 scale, 0 is no effect, 100 is complete control) (rice (Oryza sativa))","Plant response rating, Barnyardgrass ([1]; 31 g ai/ha)","Plant response rating, Barnyardgrass ([1]; 125 g ai/ha)","Foxtail, Giant plant response rating ([2]; 31 g ai/ha)","Foxtail, Giant plant response rating ([2]; 125 g ai/ha)","Plant response rating, Pigweed ([3]; 31 g ai/ha)","Plant response rating, Pigweed ([3]; 125 g ai/ha)",Kochia plant response rating (kochia (Kochia scoparia) [4]; 31 g ai/ha),Kochia plant response rating (kochia (Kochia scoparia) [4]; 125 g ai/ha),Barnyardgrass plant response rating ([5]; 31 g ai/ha),Barnyardgrass plant response rating ([5]; 125 g ai/ha),"Plant response rating, Corn (corn (Zea mays); 31 g ai/ha)","Plant response rating, Corn (corn (Zea mays); 125 g ai/ha)","Plant response rating, Foxtail, Giant ([6]; 31 g ai/ha)","Plant response rating, Foxtail, Giant ([6]; 125 g ai/ha)",Ragweed plant response rating ([7]; 31 g ai/ha),Ragweed plant response rating ([7]; 125 g ai/ha),"Plant response rating, Ryegrass, Italian ([8]; 31 g ai/ha)","Plant response rating, Ryegrass, Italian ([8]; 125 g ai/ha)","Plant response rating, Ducksalad (0 to 100 scale, 0 is no effect, 100 is complete control) [9]",other results
Cc1cccc2sc([C@@H](C)Nc3ncc(C(F)(F)F)c(N)n3)cc12 [Compound 115],0,10,100,30,90,100,100,40,80,20,60,10,100,60,100,60,80,30,50,65,"Plant response rating, Kochia (kochia (Kochia scoparia) [10]; 31 g ai/ha): 70; Plant response rating, Kochia (kochia (Kochia scoparia) [10]; 125 g ai/ha): 90; Ryegrass, Italian plant response rating ([11]; 31 g ai/ha): 20; Ryegrass, Italian plant response rating ([11]; 125 g ai/ha): 40; Plant response rating, Barnyardgrass (0 to 100 scale, 0 is no effect, 100 is complete control) [12]: 90; Plant response rating, Blackgrass ([13]; 31 g ai/ha): 0; Plant response rating, Blackgrass ([13]; 125 g ai/ha): 30; Plant response rating, Ragweed ([14]; 31 g ai/ha): 30; Plant response rating, Ragweed ([14]; 125 g ai/ha): 80; Pigweed plant response rating ([15]; 31 g ai/ha): 90; Pigweed plant response rating ([15]; 125 g ai/ha): 100; Plant response rating, Galium ([16]; 31 g ai/ha): 50; Plant response rating, Galium ([16]; 125 g ai/ha): 90; Plant response rating, Sedge, Umbrella (0 to 100 scale, 0 is no effect, 100 is complete control) [17]: 95; Plant response rating, Wheat ([18]; 31 g ai/ha): 0; Plant response rating, Wheat ([18]; 125 g ai/ha): 20"
C[C@@H](Nc1ncc(C(F)(F)F)c(N)n1)c1cc2c(Cl)cccc2s1 [Compound 116],0,10,50,20,60,90,100,30,40,0,30,20,30,10,90,60,70,30,30,60,"Plant response rating, Kochia (kochia (Kochia scoparia) [10]; 31 g ai/ha): 30; Plant response rating, Kochia (kochia (Kochia scoparia) [10]; 125 g ai/ha): 80; Ryegrass, Italian plant response rating ([11]; 31 g ai/ha): 20; Ryegrass, Italian plant response rating ([11]; 125 g ai/ha): 40; Plant response rating, Barnyardgrass (0 to 100 scale, 0 is no effect, 100 is complete control) [12]: 35; Plant response rating, Blackgrass ([13]; 31 g ai/ha): 0; Plant response rating, Blackgrass ([13]; 125 g ai/ha): 0; Plant response rating, Ragweed ([14]; 31 g ai/ha): 40; Plant response rating, Ragweed ([14]; 125 g ai/ha): 60; Pigweed plant response rating ([15]; 31 g ai/ha): 40; Pigweed plant response rating ([15]; 125 g ai/ha): 80; Plant response rating, Galium ([16]; 31 g ai/ha): 60; Plant response rating, Galium ([16]; 125 g ai/ha): 80; Plant response rating, Sedge, Umbrella (0 to 100 scale, 0 is no effect, 100 is complete control) [17]: 65; Plant response rating, Wheat ([18]; 31 g ai/ha): 0; Plant response rating, Wheat ([18]; 125 g ai/ha): 0"
